Experimental data published in PubChem BioAssay AID588587 (The Scripps Research Institute Molecular Screening Center, 2011).
Active and inactive are the calls of the source.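 Rule for the calls: active = inhibition above 60%; inactive = inhibition at or below 60%.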

Test system: Fam108b (Abhd17b) [Mus musculus]
Assay: Fam108b hydrolase inhibitors in membrane proteome – cell lysate, gel-based competitive ABPP, membrane form, set 2, SAR follow-up (AID 588587)
Settings: Fam108b-overexpressing membrane proteome, FP-Rh, at 20 µM, hits give high values

Structure (SMILES)	inhibition
CC(C)(C)c1nc2scc(-c3ccccc3)c2c(=O)o1	0% (inactive)
O=c1oc(-c2ccccc2F)nc2scc(-c3cccs3)c12	0% (inactive)
